Measured values taken from publication PMC10703812, “Understanding the molecular mechanisms of odorant binding and activation of the human OR52 family” (Nature Communications, 2023).
Several values for one entry are separate records, joined by “and”; a condition that tells them apart may be missing. Equal values may be shown once.

Assays:
OR52cs [1] = assay: cAMP signaling assay (cAMP sensor) in Hana3A cells; type: cell-based, human; settings: single experiments
Experimental: For cAMP assay, CRE luciferase assay, and surface ELISA, the full-length OR52cs construct was cloned into the pcDNA3.1 vector. The Lucy signal sequence and FLAG peptide sequence were added to the N-terminus. Mutant constructs were generated by site-directed mutagenesis. For BRET assay, eYFP was added at the C-terminus of OR52cs with a GGGGS linker. Rluc was added to Gα for resonance partner (after L99 for Gαs, and I100 for Gαolf, respectively, with GGGGS linker back and forth). […]
(§1) Hana3A cells were seeded on 96-well white microplates and transfected with OR52cs or the corresponding mutants and cAMP sensor (Promega). The medium was exchanged with CO2-independent medium (Gibco) supplemented with 0.375 mg ml^−1 D-luciferin (Nanolight) 48 h after infection, and cells were incubated in the dark at 20 °C for 2 h. Basal luminescence was detected using a Tristar 2 LB 942 multimode reader (Berthold) until it reached a plateau. Subsequently, various concentrations of odorants and forskolin (Sigma-Aldrich) were added to each well, and luminescence was measured again. Data were analyzed and plotted using GraphPad Prism 9.4.1.

OR52cs V158F = assay: cAMP signaling assay, mutant; type: cell-based, human; settings: for cAMP response: Fig.S8b source data, single experiments
Experimental: (§2) For cAMP assay, CRE luciferase assay, and surface ELISA, the full-length OR52cs construct was cloned into the pcDNA3.1 vector. The Lucy signal sequence and FLAG peptide sequence were added to the N-terminus. Mutant constructs were generated by site-directed mutagenesis. For BRET assay, eYFP was added at the C-terminus of OR52cs with a GGGGS linker. Rluc was added to Gα for resonance partner (after L99 for Gαs, and I100 for Gαolf, respectively, with GGGGS linker back and forth).
as §1

OR52cs V158F/V209M = assay: cAMP signaling assay, mutant; type: cell-based, human; settings: for cAMP response: Fig.S8b source data, single experiments
Experimental: as §2, §1

OR52cs R265A = assay: CRE luciferase assay in Hana3A cells, mutant; type: cell-based, human; settings: 100 µM carboxylic acid; Fig.S7a, single experiments
Experimental: as §2
48 h after infection, cells were treated with odorants and incubated at 37 °C for 4 h. […] All values were divided by the Renilla luciferase activity to normalize the effect of cell confluence. All data were analyzed using GraphPad Prism 9.4.1.

OR52cs [2] = assay: CRE luciferase assay in Hana3A cells; type: cell-based, human; settings: for relative fold of CRE luciferase activity: Fig.S7b, single experiments
Experimental: as §2
Hana3A cells were seeded on 96-well white microplates (SPL) and transfected with plasmids encoding CRE-luciferase, OR52cs or R265^6.59A mutant, Renilla luciferase, RTP1S, and Ric8b at a […] ratio 24 h after seeding. 48 h after infection, cells were treated with odorants and incubated at 37 °C for 4 h. Luminescence was measured using a Tristar 2 LB 942 multimode reader (Berthold). All values were divided by the Renilla luciferase activity to normalize the effect of cell confluence. All data were analyzed using GraphPad Prism 9.4.1.

OR52L1 = tested on: OR52L1; design: method as in earlier work; settings: cited from earlier work
[3] = odorant 9.18274e-8 M, Fig.S8b source data
[4] = odorant 9.18274e-7 M, Fig.S8b source data
[5] = odorant 9.18274e-6 M, Fig.S8b source data
[6] = odorant 3.0303e-5 M, Fig.S8b source data
[7] = odorant 0.0001 M, Fig.S8b source data
[8] = odorant 0.001 M, Fig.S8b source data
[9] = odorant 9.18274e-6 M, Fig.1a source data
[10] = odorant 3.0303e-5 M, Fig.1a source data
[11] = odorant 0.0001 M, Fig.1a source data

Compound	cAMP response (OR52cs [1]; [3])	cAMP response (OR52cs [1]; [4])	cAMP response (OR52cs [1]; [5])	cAMP response (OR52cs [1]; [6])	cAMP response (OR52cs [1]; [7])	cAMP response (OR52cs [1]; [8])	cAMP response (OR52cs V158F; odorant 9.18274e-8 M)	cAMP response (OR52cs V158F; odorant 9.18274e-7 M)	cAMP response (OR52cs V158F; odorant 9.18274e-6 M)	cAMP response (OR52cs V158F; odorant 3.0303e-5 M)	cAMP response (OR52cs V158F; odorant 0.0001 M)	cAMP response (OR52cs V158F; odorant 0.001 M)	cAMP response (OR52cs V158F/V209M; odorant 9.18274e-8 M)	cAMP response (OR52cs V158F/V209M; odorant 9.18274e-7 M)	cAMP response (OR52cs V158F/V209M; odorant 9.18274e-6 M)	cAMP response (OR52cs V158F/V209M; odorant 3.0303e-5 M)	cAMP response (OR52cs V158F/V209M; odorant 0.0001 M)	cAMP response (OR52cs V158F/V209M; odorant 0.001 M)	cAMP response (OR52cs [1]; [9])	relative fold (luciferase activity over DMSO) (OR52cs R265A)	further results
CCCC(=O)O [Butyrate]	-0.08428% and 0.1653% and 0.2939%	-0.5369% and 0.4001% and -0.04745%	0.134% and 0.6883% and 0.4284%	0.1103% and 0.05302% and 0.2786%	-0.1073% and 0.8927% and 0.1591%	1.5929% and 1.31% and 1.1069%	0.537% and 0.1319% and 1.733%	0.488% and 0.3268% and 1.1839%	0.5541% and 0.2838% and 1.329%	0.4886% and 0.5179% and 1.414%	0.8581% and 0.2707% and 1.963%	2.495% and 1.981% and 6.452%	0.4134% and 1.119% and 0.2589%	0.6599% and 0.9287% and 0.2324%	1.238% and 1.86% and 0.7353%	1.067% and 2.455% and 1.672%	1.838% and 4.182% and 3.8607%	12.4605% and 15.8218% and 16.2328%	–	–	–
CCCCCCCCCC(=O)O [Decanoate, decanoate]	–	–	–	–	–	–	–	–	–	–	–	–	–	–	–	–	–	–	23.4129 and 25.1996 and 45.8933	1.3086 fold and 1.135 fold and 1.747 fold and 1.1432 fold	–
CCCCCCC(=O)O [Heptanoate, heptanoate]	–	–	–	–	–	–	0.8685% and 0.5114% and 0.9157%	1.104% and 0.7302% and 1.422%	3.442% and 2.688% and 4.371%	27.9975% and 25.6918% and 43.6578%	66.0899% and 63.5108% and 78.243%	94.8324% and 85.8407% and 105.113%	0.3154% and 0.3231% and 0.3938%	4.347% and 1.257% and 3.311%	29.4811% and 22.451% and 26.2109%	75.795% and 74.3485% and 82.8548%	83.9682% and 91.5635% and 102.817%	81.746% and 93.3745% and 90.7212%	–	1.17 fold and 1.091 fold and 1.293 fold and 0.9952 fold	cAMP response (OR52cs [1]; [10]): 56.3478 and 75.8757 and 80.5266; cAMP response (OR52cs [1]; [11]): 81.4095 and 85.4775 and 102.977; cAMP response (OR52cs [1]; odorant 0.001 M, Fig.1a source data): 96.609 and 80.1017 and 111.088; downstream signal / selectivity (in words) (OR52cs V158F; Supplementary Fig. 8): enhanced selectivity
CCCCCC(=O)O [Hexanoate, hexanoate]	–	–	–	–	–	–	0.5855% and -0.5118%	0.5361% and -0.697%	0.7501% and -0.4246%	1.164% and -0.1819%	1.41% and -0.4498%	3.85% and 2.176%	1.222% and -0.2583% and 0.8037%	3.048% and 0.3713% and 1.148%	18.0149% and 8.5338% and 10.0807%	41.8588% and 26.1015% and 26.6027%	60.5576% and 50.8798% and 56.2545%	83.4195% and 80.8044% and 89.7505%	–	1.1154 fold and 1.251 fold and 1.361 fold and 1.012 fold	response / preference (in words) (OR52cs V158F/V209M; Supplementary Fig. 8): increased responses
CCCCCCCCC(=O)O [Nonanoate, nonanoate]	–	–	–	–	–	–	–	–	–	–	–	–	–	–	–	–	–	–	36.8538 and 30.3132 and 25.7666	1.195 fold and 0.996 fold and 1.289 fold and 1.267 fold	cAMP response (OR52cs [1]; [10]): 65.8721 and 78.3812 and 58.155; cAMP response (OR52cs [1]; [11]): 84.5947 and 88.3315 and 72.5955
CCCCCCCCO [Octanol, octanol]	–	–	–	–	–	–	–	–	–	–	–	–	–	–	–	–	–	–	–	–	activation of OR52cs (in words) (OR52cs [2]; Supplementary Fig. 7): failed to activate; relative fold of CRE luciferase activity (OR52cs [2]; odorant 10 μM): 1.663 fold and 1.557 fold and 1.263 fold and 1.4999 fold; relative fold of CRE luciferase activity (OR52cs [2]; odorant 50 μM): 1.747 fold and 1.809 fold and 1.706 fold and 1.694 fold; relative fold of CRE luciferase activity (OR52cs [2]; odorant 100 μM): 1.917 fold and 1.93 fold and 1.901 fold and 2.061 fold; relative fold of CRE luciferase activity (OR52cs [2]; odorant 250 μM): 1.931 fold and 2.053 fold and 2.136 fold and 2.342 fold; relative fold of CRE luciferase activity (OR52cs [2]; odorant 500 μM): 1.887 fold and 2.082 fold and 2.24 fold and 2.823 fold
CCCCC(=O)O [Pentanoate, pentanoate]	-0.162% and 0.6359% and -0.04254%	0.07645% and 0.3953% and 0.2459%	0.2758% and 0.7357% and 0.01532%	0.2715% and 0.6901% and 0.4212%	0.1615% and 1.39% and 0.4292%	2.769% and 2.642% and 1.705%	0.9264% and 0.2953% and 1.001%	0.9435% and 0.3179% and 1.755%	1.032% and 0.4577% and 1.961%	1.125% and 0.847% and 2.468%	1.499% and 1.023% and 3.422%	5.439% and 4.505% and 7.762%	-0.5993% and 0.7689% and 1.106%	-0.2116% and 0.634% and 0.6548%	0.981% and 2.2804% and 2.576%	3.113% and 5.861% and 4.955%	9.203% and 15.4507% and 12.8173%	39.0499% and 48.7069% and 47.2503%	–	–	response of OR52L1 (in words) (OR52L1): responsive
CCC(=O)O [Propionate, propionate]	-0.2092% and 0.1117% and 0.5205%	-0.1831% and 0.1609% and 0.123%	-0.2867% and 0.1185% and 0.09817%	0.2368% and 0.05491% and -0.002619%	-0.3215% and 0.04237% and 0.3227%	0.5115% and 1.283% and 1.204%	0.2434% and 0.9095%	-0.2446% and -2.828%	0.996% and -2.758%	-1.498% and -2.916%	-0.9959% and -2.168%	2.021% and 1.439%	0.9618% and -0.01314% and -0.2398%	1.572% and -0.593% and -0.7182%	1.935% and -0.7307% and 0.6877%	2.83% and 0.05137% and 0.2753%	2.508% and 0.3655% and 0.1006%	6.973% and 2.2608% and 3.165%	–	–	–
CCCCCCCCCCC(=O)O [Undecanoate, undecanoate]	–	–	–	–	–	–	–	–	–	–	–	–	–	–	–	–	–	–	17.2544 and 14.2907 and 24.4976	1.911 fold and 1.478 fold and 1.422 fold and 1.276 fold	–
